System: 695427-040-R-J1-PDC complex spheroid viability
Assay: Anticancer human tumor 695427-040-R-J1-PDC patient-derived colon adenocarcinoma cell line growth inhibition [POLQ]
Conditions: for IC50: curve of first compound; for viability, T/C: stronger effect = lower value
Method in brief: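 PDC + HUVEC + MSC complex spheroids; POLQ inhibitors ± partner drugs; top conc. at/near clinical Cmax, else 10 microM (SN-38 1 microM), half-log dilutions; 37 degrees C, 5% CO2.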

[1] = second compound 0.0316 µM, first compound 0.0316 µM
[2] = second compound 0.0316 µM, first compound 0.1 µM
[3] = second compound 0.0316 µM, first compound 0.316 µM
[4] = second compound 0.0316 µM, first compound 1 µM
[5] = second compound 0.0316 µM, first compound 3.16 µM
[6] = second compound 0.0316 µM, first compound 10 µM
[7] = second compound 0.1 µM, first compound 0.0316 µM
[8] = second compound 0.1 µM, first compound 0.1 µM
[9] = second compound 0.1 µM, first compound 0.316 µM
[10] = second compound 0.1 µM, first compound 1 µM
[11] = second compound 0.1 µM, first compound 3.16 µM
[12] = second compound 0.1 µM, first compound 10 µM
[13] = second compound 0.316 µM, first compound 0.0316 µM
[14] = second compound 0.316 µM, first compound 0.1 µM
[15] = second compound 0.316 µM, first compound 0.316 µM
[16] = second compound 0.316 µM, first compound 1 µM
[17] = second compound 0.316 µM, first compound 3.16 µM
[18] = second compound 0.316 µM, first compound 10 µM
[19] = second compound 1 µM, first compound 0.0316 µM
[20] = second compound 1 µM, first compound 0.1 µM
[21] = second compound 1 µM, first compound 0.316 µM
[22] = second compound 1 µM, first compound 1 µM
[23] = second compound 1 µM, first compound 3.16 µM
[24] = second compound 1 µM, first compound 10 µM
[25] = second compound 3.16 µM, first compound 0.0316 µM
[26] = second compound 3.16 µM, first compound 0.1 µM
[27] = second compound 3.16 µM, first compound 0.316 µM
[28] = second compound 3.16 µM, first compound 1 µM
[29] = second compound 3.16 µM, first compound 3.16 µM
[30] = second compound 3.16 µM, first compound 10 µM
[31] = second compound 10 µM, first compound 0.0316 µM
[32] = second compound 10 µM, first compound 0.1 µM
[33] = second compound 10 µM, first compound 0.316 µM
[34] = second compound 10 µM, first compound 1 µM
[35] = second compound 10 µM, first compound 3.16 µM
[36] = second compound 10 µM, first compound 10 µM
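Also: spheroids exposed to compounds for seven days.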
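For viability, T/C in this document: 100% = DMSO vehicle control viability.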

C#Cc1c(F)ccc2cc(O)cc(-c3ncc4c(N5CC6CCC(C5)N6)nc(OCC56CCCN5CC(F)C6)nc4c3F)c12 (centres undefined) + Nc1ccc(C#CCN(C(=O)Cc2ncc(C(F)(F)F)cc2C(F)(F)F)c2ccc(F)cc2)nn1
IC50 (second compound 0.0316 µM): > 10 µM | IC50 (second compound 0.1 µM): > 10 µM | IC50 (second compound 0.316 µM): > 10 µM | IC50 (second compound 1 µM): > 10 µM | IC50 (second compound 3.16 µM): > 10 µM | IC50 (second compound 10 µM): > 10 µM | viability, T/C [1]: 104% | viability, T/C [2]: 102% | viability, T/C [3]: 106% | viability, T/C [4]: 97.9% | viability, T/C [5]: 102% | viability, T/C [6]: 88.7% | viability, T/C [7]: 118% | viability, T/C [8]: 96.9% | viability, T/C [9]: 105% | viability, T/C [10]: 98.9% | viability, T/C [11]: 96.9% | viability, T/C [12]: 89.4% | viability, T/C [13]: 109% | viability, T/C [14]: 105% | viability, T/C [15]: 92.3% | viability, T/C [16]: 101% | viability, T/C [17]: 99.4% | viability, T/C [18]: 78.9% | viability, T/C [19]: 107% | viability, T/C [20]: 95.5% | viability, T/C [21]: 97.2% | viability, T/C [22]: 108% | viability, T/C [23]: 103% | viability, T/C [24]: 79.6% | viability, T/C [25]: 94.5% | viability, T/C [26]: 94.9% | viability, T/C [27]: 105% | viability, T/C [28]: 86.7% | viability, T/C [29]: 96% | viability, T/C [30]: 84.6% | viability, T/C [31]: 92% | viability, T/C [32]: 104% | viability, T/C [33]: 86.9% | viability, T/C [34]: 83.6% | viability, T/C [35]: 73.7% | viability, T/C [36]: 69.3%

CC1COCCN1c1cc(C2(O)CC3CCC(C2)O3)c2cnn(-c3ccn[nH]3)c2n1 (centres undefined) + Nc1ccc(C#CCN(C(=O)Cc2ncc(C(F)(F)F)cc2C(F)(F)F)c2ccc(F)cc2)nn1
IC50 (second compound 0.0316 µM): > 10 µM | IC50 (second compound 0.1 µM): > 10 µM | IC50 (second compound 0.316 µM): > 10 µM | IC50 (second compound 1 µM): > 10 µM | IC50 (second compound 3.16 µM): > 10 µM | IC50 (second compound 10 µM): > 10 µM | viability, T/C [1]: 103% | viability, T/C [2]: 92.9% | viability, T/C [3]: 83% | viability, T/C [4]: 78.6% | viability, T/C [5]: 65.9% | viability, T/C [6]: 60.5% | viability, T/C [7]: 111% | viability, T/C [8]: 96.5% | viability, T/C [9]: 88% | viability, T/C [10]: 76.3% | viability, T/C [11]: 69% | viability, T/C [12]: 56.3% | viability, T/C [13]: 99.4% | viability, T/C [14]: 96.7% | viability, T/C [15]: 76.7% | viability, T/C [16]: 72.4% | viability, T/C [17]: 70.3% | viability, T/C [18]: 54.5% | viability, T/C [19]: 106% | viability, T/C [20]: 95.3% | viability, T/C [21]: 84% | viability, T/C [22]: 70.5% | viability, T/C [23]: 66.4% | viability, T/C [24]: 49.5% | viability, T/C [25]: 104% | viability, T/C [26]: 87% | viability, T/C [27]: 86.4% | viability, T/C [28]: 66.6% | viability, T/C [29]: 62.4% | viability, T/C [30]: 58.6% | viability, T/C [31]: 106% | viability, T/C [32]: 91.2% | viability, T/C [33]: 78.3% | viability, T/C [34]: 65.1% | viability, T/C [35]: 58.9% | viability, T/C [36]: 56.9%

— PubChem BioAssay AID1963840 (Molecular Pharmacology Branch, DTP, NCI, 2024)
